≈ marks a conversion by molar mass, not a printed value. Calls of active or inactive are those of the source. The rule behind the calls is not given here.
Key:
[1] = system: Mycobacterium tuberculosis; test: Antimicrobial activity against Mycobacterium tuberculosis H37Rv ATCC 27294 after 5 days by microdilution method; format: functional; details: H37Rv ATCC 27294, 120 h
[2] = Cytotoxicity against human THP1 cells after 24 hrs by resazurin assay; format: cell-based, THP-1; details: read-out: MIC
[3] = system: Mycobacterium tuberculosis; test: Antimicrobial activity against ofloxacin Mycobacterium tuberculosis 12119 after 2 to 3 weeks; format: functional, organism-based
[4] = system: Mycobacterium tuberculosis; test: Antimicrobial activity against Mycobacterium tuberculosis ATCC 25618 after 2 to 3 weeks; format: functional, organism-based
[5] = target: T1, Cytochrome P450 1A2 (Homo sapiens, UniProt P05177); test: Inhibition of CYP1A2 (unknown origin); format: ADME
T1 sequence (P05177 whole entry): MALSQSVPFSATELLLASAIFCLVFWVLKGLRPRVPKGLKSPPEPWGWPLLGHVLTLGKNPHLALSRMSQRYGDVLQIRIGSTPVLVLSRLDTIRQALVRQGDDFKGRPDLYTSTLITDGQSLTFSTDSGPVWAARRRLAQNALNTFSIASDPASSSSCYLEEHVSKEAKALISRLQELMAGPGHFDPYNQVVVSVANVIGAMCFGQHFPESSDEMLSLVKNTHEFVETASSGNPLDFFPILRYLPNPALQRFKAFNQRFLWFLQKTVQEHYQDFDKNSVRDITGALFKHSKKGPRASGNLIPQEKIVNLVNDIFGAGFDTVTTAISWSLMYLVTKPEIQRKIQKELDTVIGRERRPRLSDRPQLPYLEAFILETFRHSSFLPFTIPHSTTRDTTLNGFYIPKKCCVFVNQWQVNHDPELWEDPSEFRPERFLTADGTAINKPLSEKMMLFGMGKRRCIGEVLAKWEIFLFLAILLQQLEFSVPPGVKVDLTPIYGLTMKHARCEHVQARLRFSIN

[6] = Fraction unbound in human plasma; format: ADME, cell-free
[7] = system: Mycobacterium tuberculosis; test: Antimicrobial activity against Mycobacterium tuberculosis JALMA clinical isolate after 2 to 3 weeks; format: functional, organism-based
[8] = system: Mycobacterium tuberculosis; test: Antimicrobial activity against Mycobacterium tuberculosis Harlingen after 2 to 3 weeks; format: functional, organism-based
[9] = system: Mycobacterium tuberculosis; test: Antimicrobial activity against Mycobacterium tuberculosis Beijing after 2 to 3 weeks; format: functional, organism-based
[10] = system: Mycobacterium tuberculosis; test: Antimicrobial activity against Mycobacterium tuberculosis Erdman after 2 to 3 weeks; format: functional, organism-based
[11] = target: Cytochrome P450 2D6 (Homo sapiens, UniProt P10635); test: Inhibition of CYP2D6 (unknown origin); format: ADME
Cytochrome P450 2D6, sequence (P10635 whole entry): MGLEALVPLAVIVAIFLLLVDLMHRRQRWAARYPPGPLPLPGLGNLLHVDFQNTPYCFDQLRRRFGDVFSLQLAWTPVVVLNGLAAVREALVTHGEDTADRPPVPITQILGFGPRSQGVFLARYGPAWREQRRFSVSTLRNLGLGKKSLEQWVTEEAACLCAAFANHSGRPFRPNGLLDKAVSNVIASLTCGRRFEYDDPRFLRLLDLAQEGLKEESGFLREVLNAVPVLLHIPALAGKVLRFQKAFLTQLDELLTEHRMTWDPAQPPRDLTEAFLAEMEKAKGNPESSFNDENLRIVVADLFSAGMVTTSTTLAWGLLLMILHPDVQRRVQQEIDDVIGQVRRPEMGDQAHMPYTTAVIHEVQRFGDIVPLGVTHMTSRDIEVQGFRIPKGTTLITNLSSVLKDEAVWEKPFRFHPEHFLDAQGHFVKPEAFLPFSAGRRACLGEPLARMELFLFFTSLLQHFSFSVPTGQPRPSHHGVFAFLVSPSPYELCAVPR

[12] = system: Mycobacterium tuberculosis; test: Antimicrobial activity against Mycobacterium tuberculosis DKU220 clinical isolate after 2 to 3 weeks; format: functional, organism-based
[13] = system: Mycobacterium tuberculosis; test: Antimicrobial activity against Mycobacterium tuberculosis ATCC 35811 after 2 to 3 weeks; format: functional, organism-based
[14] = system: Mycobacterium tuberculosis; test: Antimicrobial activity against Mycobacterium tuberculosis DKU 76 clinical isolate after 2 to 3 weeks; format: functional, organism-based
[15] = Lipophilicity, log D of the compound; format: physicochemical; details: octanol/water
[16] = target: Cytochrome P450 3A4 (Homo sapiens, UniProt P08684); test: Inhibition of CYP3A4 (unknown origin); format: ADME
Cytochrome P450 3A4, sequence (P08684 whole entry): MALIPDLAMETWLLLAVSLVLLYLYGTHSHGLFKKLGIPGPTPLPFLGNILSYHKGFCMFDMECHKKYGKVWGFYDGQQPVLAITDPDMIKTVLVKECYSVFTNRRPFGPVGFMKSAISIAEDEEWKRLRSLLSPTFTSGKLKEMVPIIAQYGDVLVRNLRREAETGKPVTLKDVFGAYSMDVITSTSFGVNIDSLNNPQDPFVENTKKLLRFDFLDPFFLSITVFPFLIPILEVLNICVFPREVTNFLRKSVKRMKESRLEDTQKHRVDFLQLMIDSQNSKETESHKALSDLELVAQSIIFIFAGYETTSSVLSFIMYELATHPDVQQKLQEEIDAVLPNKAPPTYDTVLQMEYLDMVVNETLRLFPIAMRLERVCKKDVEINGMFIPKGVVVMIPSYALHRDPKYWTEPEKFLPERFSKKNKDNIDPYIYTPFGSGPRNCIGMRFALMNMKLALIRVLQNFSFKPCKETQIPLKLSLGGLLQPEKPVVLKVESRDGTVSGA

[17] = system: Mycobacterium tuberculosis; test: Antimicrobial activity against Mycobacterium tuberculosis 97A clinical isolate after 2 to 3 weeks; format: functional, organism-based
[18] = system: Mycobacterium tuberculosis; test: Antimicrobial activity against Mycobacterium tuberculosis DKU211 clinical isolate after 2 to 3 weeks; format: functional, organism-based
[19] = system: Escherichia coli; test: Antimicrobial activity against Escherichia coli ARC524 after 5 days by microdilution method; format: functional; details: ARC524, 120 h
[20] = system: Haemophilus influenzae; test: Antimicrobial activity against Haemophilus influenzae ARC158 after 5 days by microdilution method; format: functional; details: ARC158, 120 h
[21] = system: Klebsiella pneumoniae; test: Antimicrobial activity against Klebsiella pneumoniae ARC1865 after 5 days by microdilution method; format: functional; details: ARC1865, 120 h
[22] = system: Staphylococcus aureus; test: Antimicrobial activity against Staphylococcus aureus ARC517 after 5 days by microdilution method; format: functional; details: ARC517, 120 h
[23] = system: Escherichia coli; test: Antimicrobial activity against Escherichia coli ARC523 after 5 days by microdilution method; format: functional; details: ARC523, 120 h
[24] = system: Pseudomonas aeruginosa; test: Antimicrobial activity against Pseudomonas aeruginosa ARC546 after 5 days by microdilution method; format: functional; details: ARC546, 120 h
[25] = system: Candida albicans; test: Antimicrobial activity against Candida albicans ARC526 after 5 days by microdilution method; format: functional; details: ARC526, 120 h
[26] = system: Pseudomonas aeruginosa; test: Antimicrobial activity against Pseudomonas aeruginosa ARC545 after 5 days by microdilution method; format: functional; details: ARC545, 120 h
[27] = system: Streptococcus pyogenes; test: Antimicrobial activity against Streptococcus pyogenes after 5 days by microdilution method; format: functional; details: 120 h
[28] = system: Haemophilus influenzae; test: Antimicrobial activity against Haemophilus influenzae ARC446 after 5 days by microdilution method; format: functional; details: ARC446, 120 h
[29] = system: Streptococcus pneumoniae; test: Antimicrobial activity against Streptococcus pneumoniae ARC548 after 5 days by microdilution method; format: functional; details: ARC548, 120 h

With `COc1ccc(-c2ccc(COc3ncccc3C(N)=O)nc2)c(Cl)c1` the MIC [1] was 5.4 µM (≈ 2 µg/mL) and the MCC at 24 h [2] was greater than 50 µM.
`Cc1cc(OC[C@@H]2CCCO2)ccc1-c1ccc(COc2ncccc2C(N)=O)nc1` gave an MIC [1] of 1.2 µM (≈ 0.503 µg/mL) and an MCC at 24 h [2] greater than 50 µM.
`COc1ccc(-c2ccc(COc3ncccc3C(N)=O)cc2)c(C)n1` showed an MIC [1] greater than 100 µM and an MCC at 24 h [2] greater than 50 µM.
With `CNC(=O)c1cccnc1OCc1ccc(-c2ccc(OCCOC)cc2C)cn1` the MIC [1] was 1.2 µM (≈ 0.489 µg/mL) and the MCC at 24 h [2] was greater than 50 µM.
In the case of `COCCOc1ccc(-c2cnc(COc3ncccc3C(N)=O)nc2)c(Cl)c1`, the MIC [1] is reported as 0.47 µM (≈ 0.195 µg/mL) and the MCC at 24 h [2] is reported as greater than 250 µM.
In the case of `COc1ccc(-c2ccc(COc3ncccc3C(N)=O)nc2)c(C(F)(F)F)c1`, the MIC [1] is reported as 39.7 µM (≈ 16 µg/mL).
For `COc1ccc(-c2ccc(COc3ncccc3C(N)=O)nc2)c(F)c1`, the MIC [1] was 16.9 µM (≈ 5.97 µg/mL) and the MCC at 24 h [2] was greater than 50 µM.
For `Cn1ccnc1-c1ccc(COc2ncccc2C(N)=O)cc1`, the MIC [1] was greater than 100 µM and the MCC at 24 h [2] was greater than 50 µM.
For `COCCOc1ccc(-c2ccc(COc3nccnc3C(N)=O)nc2)c(C)c1`, the MIC [1] was 40.5 µM (≈ 16 µg/mL) and the MCC at 24 h [2] was greater than 50 µM.
With `Cc1cc(OC[C@H]2CCCO2)ccc1-c1ccc(COc2ncccc2C(N)=O)nc1` the MIC [1] was 4.7 µM (≈ 1.97 µg/mL) and the MCC at 24 h [2] was greater than 50 µM.
For `NC(=O)c1cccnc1OCc1ccc(-c2ccccc2)cn1`, the MIC [1] was greater than 50 µM.
For `COCCOc1ccc(-c2ccc(COc3ncccc3C(N)=O)nc2)c(C)c1`, the Activity [3] was “Active”, the Activity [4] was “Active” and the “inhibition (INH)” value [5] was “Not Active”. The fraction unbound [6] was 0.042, the MIC [1] was 0.6 µM (≈ 0.236 µg/mL) and the Activity [7] was “Active”. The Activity [8] was “Active”, the Activity [9] was “Active” and the Activity [10] was “Active”. The “inhibition (INH)” value [11] was “Not Active”, the Activity [12] was “Active” and the Activity [13] was “Active”. For the same compound, the Activity [14] was “Active”, the logD [15] was 2.8 and the MCC at 24 h [2] was greater than 50 µM. The “inhibition (INH)” value [16] was “Not Active”, the Activity [17] was “Active” and the Activity [18] was “Active”.
`NC(=O)c1cccnc1OCc1ccc(-c2ccc(OCC3CCCO3)cc2Cl)cn1` (configuration not stated) showed an MIC80 [19] greater than 60 µM, an MIC80 [20] greater than 60 µM and an MIC [1] of 1.1 µM (≈ 0.484 µg/mL). For the same compound, the MIC80 [21] was greater than 60 µM, the MIC80 [22] was greater than 60 µM and the MIC80 [23] was greater than 60 µM. For the same compound, the MIC80 [24] was greater than 60 µM, the logD [15] was 2.8 and the MIC80 [25] was greater than 60 µM. For the same compound, the MCC at 24 h [2] was greater than 50 µM, the MIC [26] was greater than 60 µM and the MIC80 [27] was greater than 60 µM. It also gave an MIC80 [28] greater than 60 µM and an MIC80 [29] greater than 60 µM.

Reference: ChEMBL document CHEMBL3286119, “Biarylmethoxy Nicotinamides As Novel and Specific Inhibitors of Mycobacterium tuberculosis” (ACS Med Chem Lett, 2014)
